Experimental data: patent publication US12312625B2, “Engineering strain producing cordycepin and its derivative 3′-deoxyinosine, its preparation method and application” (DALIAN UNIVERSITY, priority 2022, dated 2025)

System: Pichia pastoris GS115 strain
Assay: Cordycepin tolerance test (growth curves of yeast in YPD medium with cordycepin)
Type: cell-based
Conditions: 30° C., biomass measured every 2h, FIG. 5
Excerpt: In order to detect the tolerance of yeast strains to cordycepin, the inventor thus provides a method of detecting the tolerance of yeast strains to cordycepin. The Pichia pastoris GS115 strain is activated and inoculated into a 96-deep porous plate containing YPD medium, with the inoculation concentration at about OD600=0.4, supplemented with the cordycepin solutions under different concentrations (0.1, 1.0, 2.0, 5.0 g·L^−1). The broth without cordycepin is used as the control, and the porous plate is placed into BioScreene, cultured by shaking at constant temperature of 30° C., and the biomass of the strain is measured every 2h. Triplicates are set in each group, and an average value of the triplicate is calculated to draw a growth curve of yeast strains under the effect of different concentrations of cordycepin. […] As mentioned above, the cordycepin yield has exceeded 2.0 g/L, so the stress tolerance of the strain needs to be considered.

Nc1ncnc2c1ncn2[C@@H]1O[C@H](CO)C[C@H]1O [cordycepin]
growth of yeast strains (YPD medium containing 2-5 g/L cordycepin): severely inhibited | growth of yeast strains (YPD medium, 1 g/L cordycepin): slight impact | growth of yeast strains (YPD medium, cordycepin below 0.1 g/L): almost has no effect
